Data taken from article PMC8279484 (Journal of Medicinal Chemistry, 2021).

What was measured:
NF-κB = assay: LPS-induced NF-κB-driven luciferase gene reporter assay in THP-1 Lucia monocytes; format: cell-based, human; conditions: for Rel. Slope: HS relative to LXA4 (1); for IC50: Homo sapiens, THP-1, read-out: Potency IC50; for IC50 / IC50 (range in words): LPS 50 ng/mL; for Potency Rel. Pot.: IC50 relative to LXA4 (1); for Efficacy Rel. Eff.: Imax relative to LXA4 (1); for reduction of LPS-induced NF-κB-driven luciferase activity: approximate extent; for (Single component) Rel. Score: Rel. Pot. / (Single component) Rel. Score: Rel. Sl.: score relative to LXA4 (1); for (Aggregate) Rel. PD Score: sum of efficacy, potency, slope scores relative to LXA4 (1); for Slope HS (Hill–Slope): slope of concentration–response curve
Method: Mycoplasma-free THP-1-Lucia NF-κB cells were grown in an RPMI 1640 (Gibco) medium containing 2 mM L-glutamine, 1.50 g/L sodium bicarbonate, 4.50 g/L glucose, 10 mM N-(2-hydroxyethyl)piperazine-N′-ethanesulfonic acid (HEPES), and 1 mM sodium pyruvate. Then, 10% heat-inactivated fetal bovine serum (FBS) (30 min at 56 °C), 100 μg/mL Normocin, and Pen-Strep (50 U/mL to 50 μg/mL) were also added to the growth media. As THP-1-Lucia cells were resistant to Zeocin, the latter was used as a selective antibiotic (a high dose, i.e., 100 μg/mL, was alternated every 2 weeks with a low dose, i.e., 10 μg/mL).
LXA41 and all of the tested sLXms were dissolved in ethanol and further diluted in a culture medium (final ethanol concentration 0.1%; equivalent concentrations were used as the vehicle control). Prior to in vitro experiments, THP-1-Lucia NF-κB cells were harvested and plated at 1 × 10^5 cells/well on 96-well plates and left to settle in the incubator at 37 °C, 95% humidity, and 5% CO2, in 0.1% FBS-containing media, pretreated for 30 min with increasing doses of LXA41, sLXms (from 10^–12 to 10^–6 M), or appropriate controls, followed by stimulation with 50 ng/mL LPS for 24 h.
NFκB activity was monitored in the human THP-1 monocytic leukemia cell line containing a stably integrated NF-κB-inducible Lucia reporter construct (as previously reported).[21] When stimulated with LPS, the transcription factor NF-κB is activated, upregulating the synthesis of proinflammatory mediators, thus bringing about an inflammatory response. In these cells, NF-κB activation is linked to a […] luciferase gene and can be measured using luminescence.
Heat-killed listeria monocytogenes (HKLM) (10^8/mL) was used as a positive control.[28] The levels of NF-κB-induced Luciferase were then measured in a culture supernatant using QUANTI-Luc as the detection reagent, and measurements were taken on a bioluminescence reader.
After 24 h, the levels of NF-κB-induced Lucia were assayed in a cell culture supernatant using QUANTI-Luc, as a detection reagent, on a bioluminescence reader (Synergy HT, BioTek Instruments, Inc. Vermont). Aliquots of the supernatant were retained for subsequent cytokine and LDH assays. Cellular proteins were extracted with a radioimmunoprecipitation assay (RIPA) buffer (Thermo Fisher, Ireland), supplemented with protease inhibitors (Sigma-Aldrich, Ireland). Lysates were clarified by centrifugation (3200g, 10’, 4 °C) to remove cell debris, and the cell protein level was quantified by performing a bicinchoninic acid (BCA) assay (as per the manufacturer’s instructions) reading the protein absorbance at 570 nm, using a spectrophotometer (SPECTRAMAX M2, Molecular Devices (U.K.) Limited). A “relative luminescence unit” (RLU) was obtained using the average value of the lum/abs ratio of two replicates.
The “coding” of the heat-map indicates the arbitrary criteria to assign points to each single PD component (efficacy = Imax or Emax; potency = IC50 or EC50; slope = HS) to generate a final (aggregate) relative PD score. […] If a single PD component was equal to the reference level (x = 1), then the single-component relative score was arbitrarily set to 0 (gray). If a single PD component was smaller than the reference level (x < 1), then the single-component relative score was arbitrarily set to −1 (light red) or −2 (dark red). If the curve of a single PD component was best fitting to a flat line (x = 0), then the single-component relative score was arbitrarily set to −4 (purple) (Table S1).

THP-1 LUCIA monocytes [1] = assay: Intrinsic cytotoxicity: LDH release without LPS; format: cell-based, human; conditions: for Intrinsic Toxicity Level: LDH-associated level of cytotoxicity (high / moderate / low); for Intrinsic Toxicity TC50 (pM): half-maximal intrinsic LDH-associated toxic activity, no LPS
Method: We investigated the potential cytotoxicity of all candidate sLXms by assaying LDH release.[50] The response to LPS was arbitrarily set to 100%, and values were expressed relative to this. As previously reported by others, LPS provokes LDH release.[51] […] Ultimately, untreated cells defined the spontaneous cell release thresholds.
Lactate dehydrogenase (LDH) was assayed in cell supernatants to investigate possible cytotoxicity of the lead compound. LDH is rapidly released into the culture medium after disruption of the plasma membrane.[67],[69] After 24 h of exposure to sLXms, vehicle, or controls, followed by LPS stimulation, as described above, THP-1-Lucia NF-κB-cell supernatants were collected and LDH was assayed. Cytotoxicity was evaluated relative to vehicle controls. Maximum releasable LDH was determined in cells lysed with 2% Triton-X-100 (Sigma-Aldrich, Ireland). LDH levels were assessed by reading the absorbance at 490 nm (protein) and 690 nm (background noise), using a spectrophotometer (SPECTRAMAX M2, Molecular Devices (U.K.) Limited).

THP-1 LUCIA monocytes [2] = assay: In vitro safety study: Safety index (Si), activity versus toxicity; format: cell-based, human; conditions: for IC50: Homo sapiens, THP-1, highest IC50 among the LPS-challenged assays (NF-κB activity, cytokine, LDH release), read-out: Extrinsic Activity hIC50; for Safety Index TC50/IC50: ratio of intrinsic TC50 to extrinsic hIC50
Method: A postanalysis “safety study” was conducted on all QNX-sLXms. For each tested compound, we calculated an in vitro “Safety index” (Si) by relating its “anti-inflammatory half-maximal activity” (the highest dose among the IC50 of the extrinsic LPS-challenged phenotype: NF-κB activity, proinflammatory cytokine, and LDH release) to its intrinsic “toxicity” (expressed as the relative half-maximal LDH-associated cytotoxicity). The generated Si is potentially predictive of a translational “therapeutic” range: the higher the Si, the safer the molecule is. As summarized in Table S4, Si values from all tested compounds fall in a broad range (7–50).

THP-1-MF0 macrophage = assay: Phagocytosis of fluorescent E. coli bioparticles by THP-1-MF0 macrophages; format: cell-based, human; conditions: for EC50: 30 min pretreatment, 2 h bioparticles, read-out: Potency EC50; for (Aggregate) Rel. PD Score / Potency Rel. Pot. / Single comp. score Rel Eff. / Single comp. score Rel. Pot.: relative to LXA4 (1)
Method: Mycoplasma-free THP-1 monocytes were grown in an RPMI 1640 (Gibco) medium containing 2 mM L-glutamine, 2.00 g/L sodium bicarbonate, and 2.00 g/L glucose. Then, 10% (v/v) heat-inactivated FBS (30 min at 56 °C) and Pen-Strep (100 U/mL to 100 μg/mL) were supplemented to the growth media.
Cell adherence was allowed for 1 h and 30 min at 37 °C/5% CO2. Cells were then treated for 30 min with controls and phagocytosis effectors for testing (vehicle, LXs, Rvs, or sLXms). Subsequently, media containing controls/effectors were vacuum-aspirated and replaced with a solution containing fluorescently prelabeled E. coli-derived bioparticles and cells were incubated in the dark for 2 h at 37 °C/5% CO2 to allow particle ingestion by monocytes/macrophages. After that, media containing bioparticles were vacuum-aspirated and replaced with a solution containing trypan blue and cells were incubated for 1 min at room temperature to allow quenching of unbound particles to ensure specificity of the fluorescent signal, deriving only from ingested particles (not shown). After aspiration of Trypan, the fluorescence reading was immediately performed at the following conditions: end point; reading from the bottom of the plate; Ex.480/Em.520 nm.

C57bl/6 mice = assay: Murine carrageenan-induced paw edema; format: in vivo, mouse; conditions: for % relative to carageenan-induced level: Veh = 100; for % relative to carageenan-induced level / % reduction relative to carageenan-induced level: (R)-6, (R)-17 2 μg/kg, Naproxen 50 mg/kg p.o.; for Paw swelling Index: Mean: n = 3
Method: Then, 50 μL of 1% carrageenan was injected with an equivalent volume of saline injected into the contralateral paw. Inflammation was presented as the difference in paw thickness over time using gauge (POCO 2T; Kroeplin, GmbH, Surrey, U.K.). Data are presented as mean ± SEM, n = 3 mice/treatment group.

| IC50 (NF-κB; 24 h) [nM] | Structure (SMILES) | Rel. Slope (NF-κB) | Potency Rel. Pot. (NF-κB) | Efficacy Rel. Eff. (NF-κB) | reduction of LPS-induced NF-κB-driven luciferase activity (NF-κB; 1 pM–1 μM) | (Single component) Rel. Score: Rel. Pot. (NF-κB) | (Single component) Rel. Score: Rel. Sl. (NF-κB) | (Aggregate) Rel. PD Score (NF-κB) | Intrinsic Toxicity TC50 (pM) (THP-1 LUCIA monocytes [1]) | IC50 (THP-1 LUCIA monocytes [2]) [nM] | Safety Index TC50/IC50 (THP-1 LUCIA monocytes [2]) | (Aggregate) Rel. PD Score (THP-1-MF0 macrophage) | Potency Rel. Pot. (THP-1-MF0 macrophage) | also measured |
| --- | --- | --- | --- | --- | --- | --- | --- | --- | --- | --- | --- | --- | --- | --- |
| 4 | CCC[C@@H](O)c1nc2ccccc2nc1/C=C/[C@@H](O)[C@@H](O)CCCC(=O)OC [(R)-7, Methyl (5S,6R,E)-5,6-Dihydroxy-8-(3-((R)-1-hydroxybutyl)quinoxalin-2-yl)oct-7-enoate] | 0.55 | 0.015 | 1.21 | 30–35% | -2 (x < 0.1) | -1 (0.01 < x < 1) | -2 | 2,000 pM | 0.1 | 20 |  |  | IC50 (range in words) (NF-κB; 24 h): “nM” range; Intrinsic Toxicity Level (THP-1 LUCIA monocytes [1]): Low-Mod.; intrinsic LDH release versus vehicle / spontaneous cell release (THP-1 LUCIA monocytes [1]; absence of LPS, 24 h, controls Dex 1 μM, 2 1 pM, 5 1 pM): lower than the vehicle |
| 1 | CCC[C@H](O)c1nc2ccccc2nc1/C=C/[C@@H](O)[C@@H](O)CCCC(=O)OC [(S)-7, Methyl (5S,6R,E)-5,6-Dihydroxy-8-(3-((S)-1-hydroxybutyl)quinoxalin-2-yl)oct-7-enoate] | 0.60 | 0.1 | 1.50 | 30–35% | -2 (x < 0.1) | -1 (0.01 < x < 1) | -1 | 110,000 pM | 15 | 7 |  |  | IC50 (range in words) (NF-κB; 24 h): “nM” range; Slope HS (Hill–Slope) (NF-κB): -6; Intrinsic Toxicity Level (THP-1 LUCIA monocytes [1]): Low-Mod. |
| 0.003 | CCCCC[C@H](O)c1nc2ccccc2nc1/C=C/[C@H]1OC(C)(C)O[C@H]1CCCC(=O)OC [(S)-17, Methyl 4-((4S,5R)-5-((E)-2-(3-((S)-1-Hydroxyhexyl)quinoxalin-2-yl)vinyl)-2,2-dimethyl-1,3-dioxolan-4-yl)butanoate] | 0 | 24 | 0.79 | least effective | 2 (x ≥ 5) | -4 (x = 0) | -3 | 100 pM | 0.003 | 33 |  |  | Imax (%) (NF-κB; maximal % inhibition of LPS (50 ng/mL)-stimulated NF-κB luciferase activity, 30 min pretreatment, 24 h, 1 pM–1 μM): 19 ± 3%; Slope HS (Hill–Slope) (NF-κB): 0 |
|  | CCCCC[C@H](O)[C@H](O)/C=C/C=C/C=C\C=C\[C@@H](O)CCCC(=O)O [LXB4] |  |  |  |  |  |  |  |  |  |  | -2 | 1 | EC50 (THP-1-MF0 macrophage): 5 nM; Single comp. score Rel Eff. (THP-1-MF0 macrophage): -2 |
|  | COc1ccc2cc([C@H](C)C(=O)O)ccc2c1 [Naproxen, reference compound] |  |  |  |  |  |  |  |  |  |  |  |  | % relative to carageenan-induced level (C57bl/6 mice; 4h): 118%; % relative to carageenan-induced level (C57bl/6 mice; 8h): 40%; % relative to carageenan-induced level (C57bl/6 mice; 24h): 55%; % reduction relative to carageenan-induced level (C57bl/6 mice; 48h): 60%; % relative to carageenan-induced level (C57bl/6 mice; 48h): 160%; % reduction relative to carageenan-induced level (C57bl/6 mice; 72h): 450%; % relative to carageenan-induced level (C57bl/6 mice; 72h): 550%; effect on inflammatory response (paw swelling), in words (C57bl/6 mice; (R)-6, (R)-17 2 μg/kg ip, Naproxen 50 mg/kg po): inflammation persisted after 72 h; Paw swelling Index: Mean (C57bl/6 mice; Time 4h, (R)-6, (R)-17 2 μg/kg ip, Naproxen 50 mg/kg po, 1% carrageenan): 0.08; Paw swelling Index: Mean (C57bl/6 mice; Time 8h, (R)-6, (R)-17 2 μg/kg ip, Naproxen 50 mg/kg po): 0.16; Paw swelling Index: Mean (C57bl/6 mice; Time 24h, (R)-6, (R)-17 2 μg/kg ip, Naproxen 50 mg/kg po): 0.48; Paw swelling Index: Mean (C57bl/6 mice; Time 48h, (R)-6, (R)-17 2 μg/kg ip, Naproxen 50 mg/kg po): 0.65; Paw swelling Index: Mean (C57bl/6 mice; Time 72h, (R)-6, (R)-17 2 μg/kg ip, Naproxen 50 mg/kg po): 0.55 |
|  | CC/C=C\C[C@H](O)/C=C/C=C\C=C\C=C\[C@@H](O)[C@@H](O)C/C=C\CCC(=O)O [RvD1] |  |  |  |  |  |  |  |  |  |  | 1 | 10000 | Single comp. score Rel. Pot. (THP-1-MF0 macrophage): 2 (x ≥ 5) |
|  | CC[C@@H](O)/C=C/C=C\C[C@@H](O)/C=C/C=C/C=C\[C@@H](O)CCCC(=O)O [RvE1] |  |  |  |  |  |  |  |  |  |  | 0 | 5000 | EC50 (THP-1-MF0 macrophage): 0.001 nM; Single comp. score Rel Eff. (THP-1-MF0 macrophage): -2; Single comp. score Rel. Pot. (THP-1-MF0 macrophage): 2 (x ≥ 5) |
